# Entries after “also recorded” stand apart in the source; their conditions may differ.
# Columns and labels:
# [1] = tested on: B16F10 cells (mouse melanoma model); assay: Mouse melanoma model: B16F10 cells subcutaneously in C57BL/6J female mice; assay type: in vivo; settings: FIG. 11, treatments administered for 7-9 days, 30 mg/kg per Table 2
# From the text: For in vivo studies, the drugs fosaprepitant dimeglumine salt (CAS No 265121-04-8, Selleck Chemicals), Cerenia® (Maropitant citrate injectable solution; Zoetis US), InVivoMAb Anti-mouse CTLA-4 (CD152) (BE0032, Bio cell), InVivoMAb Anti-mouse PD-1 (CD279) (BE0146, Bio cell) and Rat IgG2a k isotype (ref BE0089) were used.
# B16F10 cells (1×10^6 per mouse) were subcutaneously injected into the right flank of C57BL/6J female mice (Charles River) with matrigel (Matrigel Membrane Matrix, Corning) at 50% v/v. Tumour growth was evaluated every 2/3 days. Animal vital parameters were monitored daily. When the tumours reached an average volume of 100-150 mm^3, mice were randomised into cohorts of 6 animals and treatments were administered for 7-9 days. Groups and regimens for each experiment are described in Table 2. Animals of the control group were dosed with equal volume of vehicle. Animals were euthanized according to institutional guidelines and tumour samples were excised. Tumours were snap-frozen in OCT medium (Sakura Tissue Tek) or fixed in PFA and embedded in paraffin. Several internal organs were also excised and fixed in PFA for future studies.
# [2] = tested on: cell lines of Table 1 (3LL, 4T1, B16F10, CT26WT, PTEN, RT112, MCF7 cells); assay: MTT cell viability (cytotoxicity) assay in tumour cell lines, FIGS. 1-9; assay type: cell-based, mouse, rat and human; settings: cell viability after 24 hours or 48 hours
# Procedure: 21 Cell lines of three different species (mouse, rat and human) were used in this study (Table 1). All of them were maintained in culture in their respective culture media (Gibco, Thermo Fisher Scientific) supplemented with 10% fetal bovine serum (FBS) (Gibco, Thermo Fisher Scientific), 2 mM L-Glutamine (Sigma-Aldrich, Merk), and Peni-Strep (50 U/ml and […]; Gibco, Thermo Fisher Scientific) in a humidified incubator at 37° C. and 5% CO2.
# The cytotoxicity of the drugs in culture was evaluated using the 3-(4,5-Dimethyl-2-thiazolyl)-2,5-diphenyl-2H-tetrazolium bromide (MTT) reduction assay. The assay assesses cell viability through the indirect measurement of the activity of reductases that convert yellow soluble MTT into purple insoluble formazan salts. As MTT can only be reduced when these enzymes are active, the reaction is used as an indicator of the cell metabolic competence and, therefore, of viability.
# A variable number of cells (depending on the cell line) were seeded in 96 multi-well plates and grown during 24 Hours Cell Viability. The following day the culture medium was aspirated and fresh culture medium with the drug dissolved was added to the wells. After 24 Hours Cell Viability or 48 Hours Cell Viability cell viability was measurement by adding 10 μl of a 5 mg/ml MTT solution (M5655; Sigma-Aldrich) and 100 μl of a Hcl 0.01M-SDS 10% solution 4 hours later. After 24 Hours Cell Viability, the absorbance was measured at 595 nm, using a multi-well plate reader (iMark, Bio-rad).
# [3] = tested on: a range of provoked cancers and tumours; settings: immunocompromised nude mice; 10-80 mg/kg per day, up to 28 days; cited from earlier work
# [4] = tested on: osteoclastic osteosarcoma clinical stage IV; assay: Compassionate use of aprepitant in a patient with osteosarcoma; assay type: in vivo, human
# Procedure: On Dec. 9, 2022 the patient was approved for compassionate use of aprepitant at a dose of 4200 mg orally divided into 3 doses (the total daily dose being 4200 mg) along with ifosfamide and etoposide as a fourth line of treatment. Close clinical surveillance of the patient was initiated to monitor quality of life, functional status and manifestation of adverse reactions to treatment, as well as periodic serological surveillance and measurement of response to treatment by imaging studies using the RECIST 1.1 criteria.
# [5] = tested on: osteosarcoma cell line, MG-63; settings: immunocompromised nude mice; injected weekly at 80 mg/kg; cited from earlier work
# [6] = Feb. 6, 2023, aprepitant 4200 mg per day with ifosfamide and etoposide
# [7] = PET/CT Jan. 9, 2023, aprepitant 4200 mg per day with ifosfamide and etoposide
# [8] = aprepitant 4200 mg per day with ifosfamide and etoposide
smiles,measurement,setting,value
COc1ccc(C(C)(C)C)cc1CN[C@H]1C2CCN(CC2)[C@H]1C(c1ccccc1)c1ccccc1 [Maropitant],tumoral growth,[1],reduces tumoral growth
"C[C@@H](O[C@H]1OCCN(Cc2nc(=O)[nH][nH]2)[C@H]1c1ccc(F)cc1)c1cc(C(F)(F)F)cc(C(F)(F)F)c1 [aprepitant, 5-[[(2R, 3S)-2-[(1R)-1-[3,5-bis(trifluoromethyl)phenyl]ethoxy]-3-(4-fluorophenyl)-4-morpholinyl]methyl]-1,2-dihydro3H-1,2,4-triazol-3-one]","anti-cancer effects in vitro (cell viability, MTT)",[2],exhibited anti-cancer effects
same,effect on tumour size / growth,[3],somewhat effective; also recorded: slows the growth of the tumours without any net reduction in the tumour sizes
same,left upper nodule,[4]; [6],21 mm
same,pulmonary nodule in left lower lobe,[4]; [6],16.5 mm
same,pulmonary nodule in left lower nodule,[4]; [6],10 mm
same,size of bilateral pulmonary nodules and masses of right predominance,[4]; [6],slight increase in the size
same,"largest of two basal nodules, left lung",[4]; [7],20 mm
same,nodule in the left upper lower lobe,[4]; [7],16 mm
same,"nodules in the posterior apical segment, left lung",[4]; [7],21 mm
same,"diameter of solid nodule, right pleura, hilar in the middle lobe","[4]; PET/CT Jan. 9, 2023, aprepitant 4200 mg per day with ifosfamide and etoposide since Dec. 9, 2022",42 mm
same,"response according to RECIST 1.1 criteria, clinical and serological surveillance","[4]; aprepitant 4200 mg per day orally in 3 doses with ifosfamide and etoposide, from Dec. 9, 2022 to Feb. 15, 2023",stable disease-like response
same,Karnofsky,[4]; [8],70%
same,impact on the patient compared with the expected course of the disease,[4]; [8],positive impact
same,symptomatology by the Edmonton scale,[4]; [8],no increase in symptoms
same,ECOG functional status,"[4]; aprepitant 4200 mg per day with ifosfamide and etoposide, since the start of follow-up",1
same,EORTC QLQ-C30 overall score (quality of life),"[4]; aprepitant 4200 mg per day with ifosfamide and etoposide, since the start of therapy",50%
same,tolerance,"[4]; aprepitant 4200 mg per day with ifosfamide and etoposide, with supportive treatment",adequate tolerance
"CNC[C@H](O)[C@@H](O)[C@H](O)[C@H](O)CO.CNC[C@H](O)[C@@H](O)[C@H](O)[C@H](O)CO.C[C@@H](O[C@H]1OCCN(Cc2nc(=O)n(P(=O)(O)O)[nH]2)[C@H]1c1ccc(F)cc1)c1cc(C(F)(F)F)cc(C(F)(F)F)c1 [fosaprepitant-dimeglumine, 1-Deoxy-1-(methylamino)-D-glucitol[3-[[(2R,3S)-2-[(1R)-1-[3,5-bis(trifluoromethyl)phenyl]ethoxy]-3-(4-fluorophenyl)-4-morpholinyl]methyl]-2,5-dihydro-5-oxo-1H-1,2,4 triazol-1-yl]phosphonate (2:1) (salt)]",tumoral growth,[1],reduces tumoral growth
C[C@@H](O[C@H]1OCCN(Cc2nc(O)n(P(=O)(O)O)n2)[C@H]1c1ccc(F)cc1)c1cc(C(F)(F)F)cc(C(F)(F)F)c1 [fosaprepitant],therapeutic efficacy against MG-63 xenograft,[5],some therapeutic efficacy
same,"anti-cancer effects in vitro (cell viability, MTT)",[2],exhibited anti-cancer effects
Cc1ccccc1-c1cc(N2CCN(C)CC2)ncc1N(C)C(=O)C(C)(C)c1cc(C(F)(F)F)cc(C(F)(F)F)c1 [netupitant],"anti-cancer effects in vitro (cell viability, MTT)",[2],exhibited anti-cancer effects

# — US20260102417A1, “COMPOSITIONS FOR THE TREATMENT AND PREVENTION OF CANCER” (Keyzell Holding S.L., priority 2022, published 2026)
